Patent US20170239310A1, “Composition for Promoting Anti-Diabetic and Anti-Obesity Effects, Comprising Herbal Extract” (DONGGUK UNIVERSITY GYEONGJU CAMPUS INDUSTRY- ACADEMY …, priority 2014, published 2017)
Entries after “also recorded” stand apart in the source; their conditions may differ.

How the values were obtained:
[1] = DPPH free radical scavenging activity; assay type: biochemical; conditions: 300 μM DPPH, 37° C., 30 minutes
Experimental: 40 μl of a sample was mixed with 760 μl of 300 μM 2,2-diphenyl-1-picrylhydrazyl (DPPH) and the mixture was incubated at 37° C. for 30 minutes, and then the mixture was aliquoted to each well of a 96-well plate in triplicate and absorbance was measured at 515 nm using a microplate reader. BHT was used as a positive control group.

OLETF/LETO rats = experiment: Intraperitoneal insulin tolerance test (IPITT); assay type: in vivo, rat; conditions: metformin 100 mg/kg alone or with 200 mg/kg extract, insulin 1 U/kg IP
Experimental: Dietary intakes, body weights, states, and the like were checked weekly, and at 24 weeks, an IPITT was performed using blood collected from the tail veins. After 12 weeks, the rats were sacrificed under anesthesia with an intraperitoneal (IP) injection of Zoletil/Rompun, and fat, each organ sample, and serum were separated. One week prior to the end of the experiments, OLETF/LETO rats were fasted for 15 hours and then administered with 1 U/kg of insulin by intraperitoneal (IP) injection, and then measurement of blood sugar levels was performed using an Accu-Chek blood glucose meter (Roche, USA) on blood samples, which had been collected from the tail vein of each individual by bleeding a small amount of blood at 0, 30, 60, 90, and 120 minutes. The obtained values for blood sugar levels were analyzed using an area under curve (AUC), and the like.

L6 rat myoblast cells = experiment: Glucose uptake assay (2-NBDG); assay type: cell-based; conditions: 2-NBDG 100 μg/ml; compared to control group / metformin alone
Text: Undifferentiated L6 rat myoblast cells were differentiated into myotube cells using 2% horse serum. […] When performing measurement, apigenin, a compound that inhibits glucose uptake, was used as a control.

in vivo = conditions: rat, po, 100 mg/kg
HepG2 cells = experiment: Intracellular reactive oxygen species (ROS) activity, DHR123/FACS; assay type: cell-based; conditions: 6 hours, compared to normal group / metformin alone
Experimental: After centrifugation at 1200 g for 5 minutes, a supernatant was discarded, and the remaining HepG2 cells were treated with 5 μg/ml of DHR123, followed by incubation at 37° C. for 30 minutes. After additional centrifugation for 5 minutes, PBS washing was performed two times and filtration was performed. Intracellular reactive oxygen species activity was measured based on the value of fluorescence intensity obtained from FACS analysis.

3T3-L1 cells = experiment: Fat cell differentiation (Oil red O staining); assay type: cell-based; conditions: compared to control group / metformin alone
Experimental: After seeding 3T3-L1 cells into a 6-well plate at a density of 5×10^5 cells/well, the cells were cultured until reaching full confluence. The pre-existing culture medium for the cells was exchanged with DMEM (differentiation media) containing 1 μM dexamethasone, 0.5 mM IBMX, and 10 μg/ml insulin, and the cells were cultured for 48 hours and then were treated with DMEM (maturation media) containing 10 μg/ml insulin to induce differentiation. Differentiation-induced fat cells produced as a result of the process were treated with samples at various concentrations or a positive control group, and inhibitory effects on fat cell differentiation were analyzed using an Oil red O staining method, TG, and a TC assay.

RAW 264.7 cells = experiment: LPS-induced nitrogen monoxide (NO) generation, GRIESS reaction; assay type: cell-based; conditions: 1 μg/ml LPS, 24 hours, compared to LPS group / metformin alone
Experimental: To compare an anti-inflammatory function, an in vitro model of LPS-induced nitrogen monoxide (NO) generation was used in an experiment, and NO measurement was carried out using a cell supernatant based on the GRIESS reaction (Green et al., 1982). RAW 264.7 cells were seeded at a density of 1.5×10^5 cells/ml and pre-treated with samples diluted at various concentrations, and after 1 hour, the pretreated cells were treated with 1 μg/ml of lipopolysaccharide (LPS: Sigma, St Louis, Mo., USA), followed by incubation for 24 hours. 50 μl of a cell culture supernatant and 50 μl of 1% (w/v) sulfanilamide, a GRIESS reagent, were added to each well of a 96-well plate, and the 96-well plate shaded from light was incubated at room temperature for 10 minutes and then 50 μl of 0.1% (w/v) N-1-naphthylethylenediamine dissolved in 2.5% (v/v) phosphoric acid was added to each well of the 96-well plate and mixed, followed by incubation under dark conditions for 10 minutes. Absorbance was read at 540 nm using a microplate reader (Molecular Devices, CA, USA) within 30 minutes after finishing incubation. NO production was calculated using a nitric oxide standard solution.

AMPK-α = AMPK-α gene expression (real-time PCR) in RAW 264.7 cells; assay type: cell-based; conditions: normal group (N) 0.80
Experimental: (§1) Total RNA was separated and purified using TRIsure (Bioline, USA) according to a protocol. 1 μg of total RNAs was subjected to a reverse transcription reaction using a cDNA synthesis kit (Sprint™RT Complete Oligo-(dT)18, Clontech, Mountain View, Calif., USA) according to a protocol for synthesizing first strand cDNA. The produced RT-PCR sample was subjected to real-time PCR reaction, in which the final reaction volume was adjusted to 20 μl and Light Cycler-Fast Start DNA Master SYBR Green (Roche Applied Science, Indianapolis, Ind., USA) and a Light Cycler instrument (Roche Applied Science) were used.
(§2) PCR amplification was performed according to PCR steps, consisting of a pre-incubation step at 95° C. for 10 minutes and 35 (for beta-actin) or 45 (for C/EBPa) cycles of amplification (denaturation at 95° C. for 10 seconds, annealing at 52° C. for 10 seconds, and extension at 72° C. for 15 seconds). Total RNA was separated and purified using TRIsure (Bioline, USA) according to a protocol. 1 μg of total RNAs was subjected to a reverse transcription reaction using a cDNA synthesis kit (Sprint™RT Complete Oligo-(dT)18, Clontech, Mountain View, Calif., USA) according to a protocol for synthesizing first strand cDNA. […]

PPAR-α = PPAR-α gene expression (real-time PCR) in RAW 264.7 cells; assay type: cell-based; conditions: normal group (N) 1.01
Experimental: as §1, §2

TNF-α = TNF-α gene expression (real-time PCR) in RAW 264.7 cells; assay type: cell-based; conditions: normal group (N) 1.01
Experimental: (§3) To identify the gene expression levels of XBP-1, TNF-α, and IL-6, real-time PCR was performed according to the same method as described in Example 3 except primers.

RIN-m5F insulinoma cells = experiment: Insulin secretion assay (rat insulin ELISA); assay type: cell-based; conditions: […] metformin with extract, 20 mM glucose
Experimental: A portion of cell culture supernatant was subjected to centrifugation at 4° C. for 10 minutes, and after centrifugation, a supernatant was collected and stored at −20° C. for further use. The amount of secreted insulin was measured using a rat insulin ELISA kit (Mercodia, Sweden), and an insulin secretion amount per gram of proteins was calculated by measuring the concentration of cellular proteins in each well.

IL-6 = IL-6 gene expression (real-time PCR) in RAW 264.7 cells; conditions: normal group (N) 1.11
Experimental: as §3

XBP-1 = XBP-1 gene expression (real-time PCR) in RAW 264.7 cells; assay type: cell-based; conditions: normal group (N) 1.00
Experimental: as §3

SMILES	DPPH free radical scavenging IC50 [1]	insulin resistance (IPITT, blood sugar AUC) (OLETF/LETO rats)	capacity of glucose uptake (L6 rat myoblast cells)	CL renal (in vivo; blood and urine)	AUC(0-t) (in vivo; blood)	CL/F (in vivo; blood)	Cmax (in vivo; blood)	Tmax (in vivo; blood)	intracellular ROS activity (HepG2 cells)	lipid formation attributed to differentiation of 3T3-L1 preadipocytes (3T3-L1 cells)	production amount of nitrogen monoxide (RAW 264.7 cells)	gene expression level of AMPK-α (AMPK-α)	gene expression level of PPAR-α (PPAR-α)	gene expression level of TNF-α (TNF-α)	amount of insulin secretion (RIN-m5F insulinoma cells)	gene expression level of IL-6 (IL-6)	gene expression level of XBP-1 (XBP-1)
Cc1cc(C(C)(C)C)c(O)c(C(C)(C)C)c1 [BHT]	113.85 µg/mL																
CN(C)C(=N)N=C(N)N [Metformin, metformin]		tendency to decrease; also recorded: tendency of decreasing	increased capacity of glucose uptake	40.3 ± 13.8 mL/min/kg	29000 ng·h/mL	54.3 ± 15.4 mL/min/kg	7650 ± 3100 ng/mL	1.5 h	tendency of decreasing intracellular reactive oxygen species (ROS) activity	tendency of decreasing lipid formation	production amount of nitrogen monoxide was decreased	0.76	0.68	1.34	significant changes in the amounts of insulin secretion were not observed	1.91	1.01
